# Several values for one entry are separate records, joined by “and”; a condition that tells them apart may be missing. Equal entries are not always repeated. Where two headings read alike, the source gives them in different places.
# System: WT ELIC
# Assay: Fluorescence stopped-flow liposomal Tl+ flux assay, symmetric liposomes
# Type: biochemical, Erwinia chrysanthemi
# Parameters: Tl+ flux quenching rate, Avg. / Tl+ flux quenching rate: unit not given here
# Details: for time constant of activation by Tl+ flux: 10 mM propylamine; for EC50: read-out: EC50 of peak Tl+ flux rate; for Rate (stopped-flow fluorescence quenching rate) / Avg (stopped-flow fluorescence quenching rate): WT in 2:1:1 PC:PE:PG liposomes; for Rate (stopped-flow fluorescence quenching rate): single experiments; for Avg (stopped-flow fluorescence quenching rate): average of experiments
# Experimental: The fluorescence sequential-mixing stopped-flow liposomal flux measurements were carried using an SX20 stopped-flow spectrofluorometer (Applied Photophysics) and Pro-Data SX software[13],[30]. 7.5 mg of the respective lipid mixture (POPC, 1:1 POPC: POPE, 1:1 POPC:POPG, 3:1 POPC:POPE, 3:1 POPC:POPG, 2:1:1 POPC:POPE:POPG) was dried in a glass vial to a thin film under a constant stream of N2. The lipids were then further dried under vacuum in a desiccator overnight. The following day the lipids were hydrated in 500 µl of reconstitution buffer (100 mM NaNO3, 10 mM HEPES, pH 7) (Buffer R), 250 µl of 75 mM 8-Aminonaphthalene-1,3,6-Trisulfonic Acid (ANTS, ThermoFisher Scientific) in buffer R, and doped with ~18 mg of CHAPS (Anatrace). The mixture was vortexed and then sonicated with heat until completely solubilized. Following the sonication, the solution was brought to RT then 3.5 µl of 6.7 mg/ml ELIC in Buffer A with 0.02% DDM was added (3 µg per mg of lipid). This combined solution was incubated at RT for 30 min, followed by the addition of 1 ml of 1:1 v/v SM-2 BioBeads in Buffer R and an additional 250 µl of 75 mM ANTS in Buffer R. This mixture was incubated at RT for 2.5 hr with gentle mixing. The liposome suspension was then extruded with an Avanti mini-extruder and 0.1 µm membrane (30×). The extruded liposomes were stored at 13 °C overnight with gentle rotation. The next day, the liposomes were diluted to 2.5 mL using assay buffer (140 mM NaNO3, 10 mM HEPES, pH 7) (Stopped-flow Buffer A), loaded into a PD-10 desalting column (Cytiva), eluted with 3 mL of Stopped-flow Buffer A and subsequently diluted 5-fold with Stopped-flow Buffer A.
# Using propylamine as the agonist, the assay and analysis was carried out as previously described[13],[30]. ELIC-containing liposomes were first mixed 1:1 with Buffer A containing 2× the concentration of propylamine. After a variable delay of 10 ms to 25 s, the sample was then mixed 1:1 with a quenching buffer (90 mM NaNO3, 50 mM TlNO3, 10 mM HEPES, pH 7), and ANTS fluorescence (ex. 360 nm, fluorescence above 420 nm) was recorded for 1 s. For each delay time, 5 repeat measurements were obtained. The data were collected using Applied Photophysics Pro-Data SX software. The fluorescence quenching traces were fit to a stretched exponential (Eq. 2a) and the rate of Tl^+ influx was determined at 2 ms (Eq. 2b).2a Ft=F∞+F0−F∞⋅e^−t/τ^β 2b kt=β/τ⋅2ms/τ^(β−1) where Ft, F∞, F0 are the fluorescence at time t, final fluorescence and initial fluorescence. τ is the time constant, β the stretched exponential factor, and kt the calculated rate of Tl^+ influx at 2 ms. The time course of desensitization was also fit to a double exponential and a weighted time constant was calculated as was done for the patch-clamp data using Origin 2019b. All replicates were taken from independent samples.
smiles,measurement,setting,value
CCCN [propylamine],time constant of activation by Tl+ flux,2:1:1 liposomes,41 ± 34 ms
same,time constant of activation by Tl+ flux,POPC liposomes,20 ± 6 ms
same,EC50,"2:1:1 POPC:POPE:POPG liposomes, no BaCl2, Hill fit",2400 µM and ~2000 µM
same,Hill n of peak Tl+ flux dose response,2:1:1 liposomes,2.2 ± 0.7
same,Hill n of peak Tl+ flux dose response,POPC liposomes,3.6 ± 0.6
same,EC50,"POPC liposomes, Hill fit",4300 ± 1400 µM
same,"Tl+ flux quenching rate, Avg.","WT 1:1 PC:PE 10 mM PA, delay 0.01 s",12.8731
same,"Tl+ flux quenching rate, Avg.","WT 1:1 PC:PE 10 mM PA, delay 0.025 s",18.7932
same,"Tl+ flux quenching rate, Avg.","WT 1:1 PC:PE 10 mM PA, delay 0.05 s",16.1105
same,"Tl+ flux quenching rate, Avg.","WT 1:1 PC:PE 10 mM PA, delay 0.1 s",21.9541
same,"Tl+ flux quenching rate, Avg.","WT 1:1 PC:PE 10 mM PA, delay 0.25 s",19.0107
same,"Tl+ flux quenching rate, Avg.","WT 1:1 PC:PE 10 mM PA, delay 0.5 s",18.8714
same,"Tl+ flux quenching rate, Avg.","WT 1:1 PC:PE 10 mM PA, delay 1 s",13.7475
same,"Tl+ flux quenching rate, Avg.","WT 1:1 PC:PE 10 mM PA, delay 2.5 s",11.8878
same,"Tl+ flux quenching rate, Avg.","WT 1:1 PC:PE 10 mM PA, delay 5 s",9.713
same,"Tl+ flux quenching rate, Avg.","WT 1:1 PC:PE 10 mM PA, delay 10 s",6.252
same,"Tl+ flux quenching rate, Avg.","WT 1:1 PC:PE 10 mM PA, delay 25 s",0.8964
same,"Tl+ flux quenching rate, Avg.","WT 1:1 PC:PG 10 mM PA, delay 0.01 s",3.795
same,"Tl+ flux quenching rate, Avg.","WT 1:1 PC:PG 10 mM PA, delay 0.025 s",9.924
same,"Tl+ flux quenching rate, Avg.","WT 1:1 PC:PG 10 mM PA, delay 0.05 s",11.1292
same,"Tl+ flux quenching rate, Avg.","WT 1:1 PC:PG 10 mM PA, delay 0.1 s",12.6513
same,"Tl+ flux quenching rate, Avg.","WT 1:1 PC:PG 10 mM PA, delay 0.25 s",13.2242
same,"Tl+ flux quenching rate, Avg.","WT 1:1 PC:PG 10 mM PA, delay 0.5 s",14.1908
same,"Tl+ flux quenching rate, Avg.","WT 1:1 PC:PG 10 mM PA, delay 1 s",14.7233
same,"Tl+ flux quenching rate, Avg.","WT 1:1 PC:PG 10 mM PA, delay 2.5 s",12.796
same,"Tl+ flux quenching rate, Avg.","WT 1:1 PC:PG 10 mM PA, delay 5 s",11.2973
same,"Tl+ flux quenching rate, Avg.","WT 1:1 PC:PG 10 mM PA, delay 10 s",8.515
same,"Tl+ flux quenching rate, Avg.","WT 1:1 PC:PG 10 mM PA, delay 25 s",1.356
same,"Tl+ flux quenching rate, Avg.","WT 2:1:1 PC:PE:PG 10 mM PA, delay 0.01 s",108.066
same,"Tl+ flux quenching rate, Avg.","WT 2:1:1 PC:PE:PG 10 mM PA, delay 0.025 s",129.134
same,"Tl+ flux quenching rate, Avg.","WT 2:1:1 PC:PE:PG 10 mM PA, delay 0.05 s",140.06
same,"Tl+ flux quenching rate, Avg.","WT 2:1:1 PC:PE:PG 10 mM PA, delay 0.1 s",141.696
same,"Tl+ flux quenching rate, Avg.","WT 2:1:1 PC:PE:PG 10 mM PA, delay 0.25 s",158.52
same,"Tl+ flux quenching rate, Avg.","WT 2:1:1 PC:PE:PG 10 mM PA, delay 0.5 s",169.325
same,"Tl+ flux quenching rate, Avg.","WT 2:1:1 PC:PE:PG 10 mM PA, delay 1 s",150.743
same,"Tl+ flux quenching rate, Avg.","WT 2:1:1 PC:PE:PG 10 mM PA, delay 2.5 s",114.107
same,"Tl+ flux quenching rate, Avg.","WT 2:1:1 PC:PE:PG 10 mM PA, delay 5 s",89.8389
same,"Tl+ flux quenching rate, Avg.","WT 2:1:1 PC:PE:PG 10 mM PA, delay 10 s",66.5759
same,"Tl+ flux quenching rate, Avg.","WT 2:1:1 PC:PE:PG 10 mM PA, delay 25 s",19.0264
same,"Tl+ flux quenching rate, Avg.","WT 3:1 PC:PE 10 mM PA, delay 0.01 s",13.3934
same,"Tl+ flux quenching rate, Avg.","WT 3:1 PC:PE 10 mM PA, delay 0.025 s",16.8702
same,"Tl+ flux quenching rate, Avg.","WT 3:1 PC:PE 10 mM PA, delay 0.05 s",17.8262
same,"Tl+ flux quenching rate, Avg.","WT 3:1 PC:PE 10 mM PA, delay 0.1 s",25.5678
same,"Tl+ flux quenching rate, Avg.","WT 3:1 PC:PE 10 mM PA, delay 0.25 s",25.5466
same,"Tl+ flux quenching rate, Avg.","WT 3:1 PC:PE 10 mM PA, delay 0.5 s",29.8205
same,"Tl+ flux quenching rate, Avg.","WT 3:1 PC:PE 10 mM PA, delay 1 s",23.2733
same,"Tl+ flux quenching rate, Avg.","WT 3:1 PC:PE 10 mM PA, delay 2.5 s",17.3881
same,"Tl+ flux quenching rate, Avg.","WT 3:1 PC:PE 10 mM PA, delay 5 s",8.6052
same,"Tl+ flux quenching rate, Avg.","WT 3:1 PC:PE 10 mM PA, delay 10 s",3.015
same,"Tl+ flux quenching rate, Avg.","WT 3:1 PC:PE 10 mM PA, delay 25 s",0.5341
same,"Tl+ flux quenching rate, Avg.","WT 3:1 PC:PG 10 mM PA, delay 0.01 s",3.538
same,"Tl+ flux quenching rate, Avg.","WT 3:1 PC:PG 10 mM PA, delay 0.025 s",5.637
same,"Tl+ flux quenching rate, Avg.","WT 3:1 PC:PG 10 mM PA, delay 0.05 s",6.577
same,"Tl+ flux quenching rate, Avg.","WT 3:1 PC:PG 10 mM PA, delay 0.1 s",5.156
same,"Tl+ flux quenching rate, Avg.","WT 3:1 PC:PG 10 mM PA, delay 0.25 s",10.2935
same,"Tl+ flux quenching rate, Avg.","WT 3:1 PC:PG 10 mM PA, delay 0.5 s",10.5897
same,"Tl+ flux quenching rate, Avg.","WT 3:1 PC:PG 10 mM PA, delay 1 s",10.9346
same,"Tl+ flux quenching rate, Avg.","WT 3:1 PC:PG 10 mM PA, delay 2.5 s",9.589
same,"Tl+ flux quenching rate, Avg.","WT 3:1 PC:PG 10 mM PA, delay 5 s",8.149
same,"Tl+ flux quenching rate, Avg.","WT 3:1 PC:PG 10 mM PA, delay 10 s",1.496
same,"Tl+ flux quenching rate, Avg.","WT 3:1 PC:PG 10 mM PA, delay 25 s",1.028
same,"Tl+ flux quenching rate, Avg.","WT PC 10 mM PA, delay 0.01 s",3.242
same,"Tl+ flux quenching rate, Avg.","WT PC 10 mM PA, delay 0.025 s",7.793
same,"Tl+ flux quenching rate, Avg.","WT PC 10 mM PA, delay 0.05 s",10.0904
same,"Tl+ flux quenching rate, Avg.","WT PC 10 mM PA, delay 0.1 s",10.8806
same,"Tl+ flux quenching rate, Avg.","WT PC 10 mM PA, delay 0.25 s",11.6946
same,"Tl+ flux quenching rate, Avg.","WT PC 10 mM PA, delay 1 s",9.9293
same,"Tl+ flux quenching rate, Avg.","WT PC 10 mM PA, delay 2.5 s",4.516
same,"Tl+ flux quenching rate, Avg.","WT PC 10 mM PA, delay 5 s",0.8684
same,"Tl+ flux quenching rate, Avg.","WT PC 10 mM PA, delay 10 s",0.09487
same,"Tl+ flux quenching rate, Avg.","WT PC 10 mM PA, delay 25 s",0.1384
same,"Tl+ flux quenching rate, Avg.","WT PC 10 mM PA, delay printed 0.05 (line r87, between 0.25 and 1)",13.718
same,Rate (stopped-flow fluorescence quenching rate),"0.3 mM PA, delay time 0",0
same,Avg (stopped-flow fluorescence quenching rate),"0.3 mM PA, delay time 0.025",0.05393
same,Avg (stopped-flow fluorescence quenching rate),"0.3 mM PA, delay time 0.05",0.1144
same,Avg (stopped-flow fluorescence quenching rate),"0.3 mM PA, delay time 0.1",0.02985
same,Rate (stopped-flow fluorescence quenching rate),"0.3 mM PA, delay time 0.1, listed as PA",0.02819 and 0.02444 and 0.03693
same,Avg (stopped-flow fluorescence quenching rate),"0.3 mM PA, delay time 0.25",0.2226
same,Avg (stopped-flow fluorescence quenching rate),"0.3 mM PA, delay time 0.5",0.07829
same,Rate (stopped-flow fluorescence quenching rate),"0.3 mM PA, delay time 0.5, listed as PA",0.05209 and 0.08034 and 0.1024
same,Avg (stopped-flow fluorescence quenching rate),"0.3 mM PA, delay time 1",0.1269
same,Avg (stopped-flow fluorescence quenching rate),"0.3 mM PA, delay time 2.5",0.07966
same,Avg (stopped-flow fluorescence quenching rate),"0.3 mM PA, delay time 5",0.1012
same,Avg (stopped-flow fluorescence quenching rate),"0.3 mM PA, delay time 10",0.07302
same,Avg (stopped-flow fluorescence quenching rate),"0.3 mM PA, delay time 25",0.144
same,Rate (stopped-flow fluorescence quenching rate),"0.3 mM PA, delay time 25, listed as PA",0.1101 and 0.1736 and 0.1484
same,Rate (stopped-flow fluorescence quenching rate),"1 mM PA, delay time 0",0
same,Avg (stopped-flow fluorescence quenching rate),"1 mM PA, delay time 0.025",0.05821
same,Avg (stopped-flow fluorescence quenching rate),"1 mM PA, delay time 0.05",0.3418
same,Avg (stopped-flow fluorescence quenching rate),"1 mM PA, delay time 0.1",0.7543
same,Avg (stopped-flow fluorescence quenching rate),"1 mM PA, delay time 0.25",9.601
same,Avg (stopped-flow fluorescence quenching rate),"1 mM PA, delay time 0.5",9.433
same,Avg (stopped-flow fluorescence quenching rate),"1 mM PA, delay time 1",13.1765
same,Avg (stopped-flow fluorescence quenching rate),"1 mM PA, delay time 2.5",13.927
same,Avg (stopped-flow fluorescence quenching rate),"1 mM PA, delay time 5",16.0207
same,Avg (stopped-flow fluorescence quenching rate),"1 mM PA, delay time 10",13.7137
same,Avg (stopped-flow fluorescence quenching rate),"1 mM PA, delay time 25",8.387
same,Rate (stopped-flow fluorescence quenching rate),"3 mM PA, delay time 0",0
same,Avg (stopped-flow fluorescence quenching rate),"3 mM PA, delay time 0.05",279.785
same,Avg (stopped-flow fluorescence quenching rate),"3 mM PA, delay time 0.1",279.666
same,Avg (stopped-flow fluorescence quenching rate),"3 mM PA, delay time 0.25",300.719
same,Avg (stopped-flow fluorescence quenching rate),"3 mM PA, delay time 0.5",352.59
same,Avg (stopped-flow fluorescence quenching rate),"3 mM PA, delay time 1",284.973
same,Avg (stopped-flow fluorescence quenching rate),"3 mM PA, delay time 2.5",176.344
